Assay [1] has as its system X-MuLV. As to the kind of experiment: Dual X-MuLV inactivation by low pH and detergent in mAb protein A eluate, remaining infectivity by TCID50 assay on PG-4 cells. The class given is cell-based, Xenotropic Murine Leukemia Virus. To be noted: for required inactivation time compared with 0.2% Tween 80 / time required for X-MuLV inactivation: 16° C.; for treatment time to completely inactivate X-MuLV: 18° C. Here is the method: […] The pH adjusted eluates were then filtered by a 0.22 um filter. Various volumes of 5% detergent stock solution were then added to the filtered protein A eluates. The low pH protein A eluates containing Mega-10, Tween 80 or Tween 20 were pre-incubated at a 16° C. water bath prior to spiking with X-MuLV at a 1:20 ratio. After a thorough mixing, an aliquot of sample was removed immediately and neutralized with 1 M Tris buffer to stop low pH viral inactivation, then immediately quenched with diluent at 1:12 for Mega-10 or at 1:100 for Tween 20 and Tween 80 to stop viral inactivation by the detergent. The collected sample was designated as a time-zero reference. The remaining spiked eluate was returned to the water bath and the samples were collected at indicated times to evaluate the viral inactivation kinetics. The remaining X-MuLV infectivity in the samples post-inactivation treatment was determined by a TCID50 assay that is an endpoint dilution assay to quantify the amount of virus required to produce a cytopathic effect in 50% of inoculated tissue culture cells. Virus titers were estimated using the Spearman-Karber method and reported as TCID50/mL with a calculated 95% confidence interval (CI). Briefly, a sufficient number of 96-well plates with PG-4 (feline S^+L^−, ATCC#CRL-2032) cells were prepared the day before starting the viral inactivation experiments and incubated overnight in a 37° C. humidified CO2 incubator. A set of ten 3.2 fold dilution of the diluted positive control (1:100) and viral inactivated samples were prepared in a dilution block. Each set of the 11 serial dilutions of the samples were inoculated correspondingly onto wells (100 μL per well) of the first 11 columns in a 96-well plate that had been pre-seeded with PG-4 cells. The 12th column in the same plate was inoculated with the corresponding diluent to serve as non-virus negative control. The positive control was prepared by spiking the filtered neutralized protein A eluate with X-MuLV at a 1:20 ratio. The inoculated plates were then incubated in a 37° C. humidified CO2 incubator for approximate 2 hours. A volume of 100 uL of 2× assay medium (92% McCoy's 5A medium, 4% FBS, 2% Penicillin/Streptomycin, 2% L-Glutamine) was added to each well of the plates at the end of incubation. The plates were then returned to the same incubator, and continued incubation for 6 days. Each well of the plates were scored under a microscope for the presence of cytopathic effect (CPE) and the results were recorded in a scoring sheet. Virus titers were then estimated using the Spearman-Karber method and reported as TCID50/mL with a calculated 95% confidence interval (CI).

The test system of assay [2] is retroviruses. To be noted: Triton X-100 ≥0.5%; hold time ≥60 minutes; 15-25° C.; pH 6.0-8.0; clarified, cell-free intermediate of mAb or IgG Fc fusion protein; cited from earlier work.

Turning to `CCCCCCCC/C=C\CCCCCCCC(=O)OCCOCC(OCCO)C1OCC(OCCO)C1OCCO` (stereo not shown) [Tween 80], the “time needed for inactivating X-MuLV to the level below the detection limit” value in assay [1] (dual treatment: mAb2 protein A eluate pH 4.05 with 0.5% Tween 80, 16° C. (120 minutes by pH 4.0 alone at 18° C.)) is 10 min. Besides, the “incubation time needed for inactivation of X-MuLV to the level below the detection limit” value in assay [1] (dual treatment: mAb3 (IgG2) protein A eluate pH 3.97 with 0.5% Tween 80, 16° C. (120 minutes by low pH alone)) turned out to be 5 min. Also, in assay [1] (dual treatment: mAb3 protein A eluate pH 3.99 with 0.2% Tween 80, 16° C. (120 minutes without detergent)), the required inactivation time was determined as 5 min. Also, the “required inactivation time compared with 0.2% Tween 80” value in assay [1] (dual treatment: mAb3 protein A eluate pH 3.99 with 0.3% Tween 80) and in assay [1] (dual treatment: mAb3 protein A eluate pH 3.99 with 0.5% Tween 80) was “no further reducing of time” throughout. The “time required for X-MuLV inactivation” value was found to be 0 min in assay [1] (mAb3 protein A eluate containing 0.1% Tween 80 at pH 3.7), 1 min in assay [1] (mAb3 protein A eluate containing 0.1% Tween 80 at pH 3.8), 2.5 min in assay [1] (mAb3 protein A eluate containing 0.1% Tween 80 at pH 3.9) and 10 min in assay [1] (mAb3 protein A eluate containing 0.1% Tween 80 at pH 4.0). Moreover, the “treatment time to completely inactivate X-MuLV” value in assay [1] (mAb4 protein A eluate at pH 4.11 containing 1% Tween 80) is 1 h; in assay [1] (mAb4 protein A eluate at pH 4.20 containing 1% Tween 80) it was 3 h; in assay [1] (mAb4 protein A eluate at pH 4.30 containing 1% Tween 80), 4 h.
On to Triton X-100, for which the “LRF of retroviral inactivation” value in assay [2] was no less than 4.0.

The values above are taken from patent US12123028B2, “Viral inactivation methods for continuous manufacturing of antibodies” (Bayer HealthCare LLC, priority 2018, dated 2024).
